Experimental data: patent US20250325675A1, “APTAMER, CONJUGATE, COMPOSITION, METHOD FOR PREPARING SAME, AND USE THEREOF” (priority 2022, published 2025)
{Cy5} = cyanine 5 fluorescent dye

Assays:
U118MG glioma cells = assay: High content imaging: entry of conjugates into U118MG glioma cells; format: cell-based, human; details: 100 nM, 30 min 37°C, normalized to control group 2Y
Description: (§1) In this experiment, the entry of conjugate AP1 provided by the present disclosure and comparative conjugate comparative AP10 into different cells was observed by a PerkinElmer High Content Imaging system (Operatta).
(§2) U118MG glioma cells, SVGp12 normal astrocytes, T98G human brain glioma cells, U251 human glioma cells, A549 human non-small cell lung cancer cells, MCF-7 human breast cancer cells, and 293T human kidney epithelial cells were all purchased from the Shanghai Cell Bank of Chinese Academy of Sciences. […] The supernatant was aspirated and DPBS buffer (purchased from Thermo Fisher) was added to wash the plate 2 times (100 μL each time).
(§3) Conjugate AP1 prepared above and yeast tRNA were respectively formulated into conjugate solution 2A with DMEM medium, and the conjugate solution 2A comprised yeast tRNA at a final concentration of 100 μg/mL and conjugate AP1 at a final concentration of 100 nM. […]
(§4) Normalization was performed according to the mean fluorescence intensity of control group 2Y, that is, subtracting the mean fluorescence intensity of control group 2Y from the fluorescence intensity of test group 2X before performing imaging.

[1] = system: A549 human non-small cell lung cancer tumor spheres; assay: High content imaging: entry into A549 tumor spheres; format: cell-based; details: 100 nM, imaging without washing
Description: In this experiment, the entry of conjugate AP1 provided by the present disclosure and comparative conjugate comparative AP10 into U118MG glioma tumor spheres and A549 human non-small cell lung cancer tumor spheres was observed by a PerkinElmer High Content Imaging system (Operatta).
80 μL fresh, sterilized and unsolidified 2% agarose was added into the culture wells of a 96-well plate. […] Half of the supernatant was aspirated every 48 h and fresh DMEM medium was added along the wall of the culture wells. After 7 days of culture, the cells were observed under the microscope to confirm that complete cell spheres were obtained, indicating successful tumor sphere cultivation.
Each culture well was added with AP1 or comparative AP10 according to the method of experimental Example 2, and imaged in a high content imaging system, with the only difference of directly performing imaging after culture without washing and performing imaging according to the measured fluorescence intensity of Cy5.

[2] = system: MCF-7 human breast cancer cells; assay: High content imaging: entry of conjugates into MCF-7 cells; format: cell-based; details: 100 nM, 30 min 37°C
Description: as §1, §2, §3, §4

[3] = system: U118MG glioma subcutaneous tumor; assay: In vivo distribution in U118MG cell subcutaneous tumor model mice (Experimental Example 4); set-up: species or system NOD-SCID mice; details: mouse, in vivo
Description: U118MG human glioma cells in the logarithmic growth phase were selected and digested (0.25% pancreatic enzyme).
The mice were further fed for 20 days after injection.
The mice inoculated with U118MG above were randomly divided into 3 groups (4 mice per group). For the 4 mice per group, the administration volume was calculated according to 10 μL/g body weight, and AP1, AP2 and comparative AP11 were respectively administered to different groups of mice by tail vein injection and designated as test group 4A1, test group 4A2 and control group 4A3. Thus, the administration dosage of each mouse was 3 mg/kg (based on aptamer). Another mouse inoculated with U118MG above was administered with 1×DMEM medium by tail vein injection (the administration volume was 10 μL/g body weight), and designated as blank control group 4Y.

SVGp12 normal astrocytes = assay: High content imaging: entry of conjugates into SVGp12 normal astrocytes; format: cell-based, human; details: 100 nM, 30 min 37°C
Description: as §1, §2, §3, §4

CY5-CfUfGGAGUfUfCfAGACfGUfGUfUfGCfUfCfUfUfCfCfGAUfCfUfCf (CUGGAGUUCAGACGUGUUGCUCUUCCGAUCUC; 2'-fluoro at CU, RNA at AG, 5' {Cy5}, backbone not given here) [AP1]
Cy5 fluorescence signal in cells (U118MG glioma cells): strong Cy5 fluorescence signal
Cy5 fluorescence signal in tumor spheres [1]: strong Cy5 fluorescence signal
Cy5 fluorescence signal in cells [2]: strong Cy5 fluorescence signal
fluorescence signal in mice / at site of tumor inoculation [3]: strong fluorescence signal at the sites of tumor inoculation
Cy5 fluorescence signal in cells (SVGp12 normal astrocytes): did not show any fluorescence signal
